Test results from patent publication US20110150836A1, “METHODS OF TREATING HBV AND HCV INFECTION” (Gilead Sciences, Inc., priority 2009, published 2011).

System: human peripheral blood mononuclear cells (PBMCs)
Test: Induction of cytokines in human PBMCs in vitro (Luminex/Upstate multi-plex)
Format: cell-based
Settings: 24 hours; for IFN-α concentration / IFN-β concentration / IFN-γ concentration / IL1-α concentration / IL1-β concentration / IL-1ra concentration / IL-6 concentration / IL-10 concentration / IL-12 concentration / TNF-α concentration: PBMC supernatant
Protocol: Frozen human PBMCs were thawed and used to seed the wells of 96 well plates (7.5×10^5cells/well in 190 μL/well culture medium (CM)). The cells were incubated for 1 hour at 37° C. at a 5% CO2. […] The plates were incubated at 37° C., 5% CO2, for 24 hours, then centrifuged at 1200 rpm for 10 minutes. After centrifugation the supernatant was collected and stored at −80° C. The supernatant was assayed using Luminex and Upstate multi-plex kits for the presence of various cytokines.

In the case of `CCCCOc1nc(N)c2nc(O)n(Cc3cccc(CN4CCCC4)c3)c2n1` [Compound A, 6-amino-2-butoxy-9-(3-(pyrrolidin-1-ylmethyl)benzyl)-9H-purin-8-ol], the “production of cytokines in human PBMCs in vitro” value (0.1, 0.01, 0.001 μM) is reported as “stimulated the production of a range of cytokines”, the IFN-α concentration (Compound A 0.001 μM) is reported as 208 pg/mL and the IFN-β concentration (Compound A 0.001 μM) is reported as 324 pg/mL. For the same molecule, the IFN-γ concentration (Compound A 0.001 μM) was 2099 pg/mL, the IL1-α concentration (Compound A 0.001 μM) was 7 pg/mL and the IL1-β concentration (Compound A 0.001 μM) was 138 pg/mL. It also gave an IL-1ra concentration (Compound A 0.001 μM) of 3216 pg/mL, an IL-6 concentration (Compound A 0.001 μM) of 27664 pg/mL and an IL-10 concentration (Compound A 0.001 μM) of 735 pg/mL. For the same molecule, the IL-12 concentration (Compound A 0.001 μM) was 61 pg/mL, the TNF-α concentration (Compound A 0.001 μM) was 82 pg/mL and the IFN-α concentration (Compound A 0.01 μM) was 122 pg/mL. For the same molecule, the IFN-β concentration (Compound A 0.01 μM) was 170 pg/mL, the IFN-γ concentration (Compound A 0.01 μM) was 4578 pg/mL and the IL1-α concentration (Compound A 0.01 μM) was 94 pg/mL. The IL1-β concentration (Compound A 0.01 μM) was 752 pg/mL, the IL-1ra concentration (Compound A 0.01 μM) was 4530 pg/mL and the IL-6 concentration (Compound A 0.01 μM) was 66284 pg/mL. The IL-10 concentration (Compound A 0.01 μM) was 992 pg/mL, the IL-12 concentration (Compound A 0.01 μM) was 386 pg/mL and the TNF-α concentration (Compound A 0.01 μM) was 1449 pg/mL. For the same molecule, the IFN-α concentration (Compound A 0.1 μM) was 80 pg/mL, the IFN-β concentration (Compound A 0.1 μM) was 97 pg/mL and the IFN-γ concentration (Compound A 0.1 μM) was 5400 pg/mL. For the same molecule, the IL1-α concentration (Compound A 0.1 μM) was 280 pg/mL, the IL1-β concentration (Compound A 0.1 μM) was 2836 pg/mL and the IL-1ra concentration (Compound A 0.1 μM) was 4934 pg/mL. The IL-6 concentration (Compound A 0.1 μM) was 93554 pg/mL, the IL-10 concentration (Compound A 0.1 μM) was 1523 pg/mL and the IL-12 concentration (Compound A 0.1 μM) was 773 pg/mL. The TNF-α concentration (Compound A 0.1 μM) was 3665 pg/mL.
